For series [1], the system named is FXR target genes (BSEP, OSTα, NTCP) in HepG2 cells. Briefly: qPCR of FXR target genes in HepG2 cells. It counts as cell-based. Particulars: 6-ECDCA 10 μM plus compound. The procedure:
(§1) HepG2 and CaCo2 cell lines, obtained from ATCC, were routinely cultured in Eagle’s MEM and high-glucose DMEM, respectively, supplemented with 10% FBS, 1% glutamine, and penicillin/streptomycin. For in vitro experiments, HepG2 (2 × 106) cells were stimulated with 6-ECDCA at a concentration of 10 µM alone or in combination with compound 5 or 11, and CaCo2 cells were exposed to TNFα (100 ng/mL) alone or in combination with rifaximin, compound 5, or 11.
(§2) Total RNA was isolated from the HepG2 and CaCo2 cell lines using TRI reagent (Zymo Research) and Direct-zol™ RNA MicroPrep w/Zymo-Spin™ IIC Columns (Zymo Research, Irvine, CA, USA). After purification from genomic DNA using DNase I (Thermo Fisher Scientific, Waltham, MA, USA), 2 μg of RNA from each sample was reverse transcribed using Kit FastGene Scriptase Basic (Nippon Genetics, Mariaweilerstraße, Düren, Germany) in 20-μL of reaction volume, and 50 ng of cDNA was amplified in a 20-μL solution containing 200 nM of each primer and 10 μL of PowerUp™ SYBR™ Green Master Mix (Thermo Fisher Scientific, Waltham, MA, USA) using a Quantstudio 3 system (Applied Biosystems, Foster City, CA, USA). The relative mRNA expression was calculated according to the ΔCt method. The primer used were as follows (forward and reverse): hGapdh (for […]; rev […]), hBsep (for […]; rev […]), hOstα (for […]; rev […]), hNtcp (for […]; rev […]), hPxr (for GCAAGGGCTTTTTCAGGAG; rev GGGTCTTCCGGGTGATCT), hIl-8 (for […]; rev […]), hIl-1β (for […]; rev […]).

Series [2] concerns Human-CaCo2 cells stimulated with TNFα. The series is described as follows: qPCR of PXR and inflammatory cytokines in TNFα-stimulated CaCo2 cells. The series is classed as cell-based. Particulars: TNFα 100 ng/mL plus compound 10 μM. The procedure: as §1, §2
Series [3] is described as follows: Metabolic stability in human liver S9 fraction. The series is classed as in vitro ADME. The settings on record: pH 7.4, 1 μM compound, 37 °C. The procedure:
Human liver S9 fraction (Sigma-Aldrich, St. Louis, MO, USA) was used. All incubations were performed in duplicate in a thermoblock (Dlab dry bath HB 120-S) at 37 °C. The incubation mixtures contained 1 μM compound with 0.1% DMSO used as a vehicle, human liver S9 fraction (0.3 mg of protein per mL), 5 mM taurine, 5 mM glycine, 5 mM glucose 6-phosphate, 5 mM GSH, 1 mM NADPH, 1 mM ATP, 0.4 mM CoA, 0.4 mM UDPGA, 0.1 mM PAPS, and 0.4 U·mL^−1 glucose 6-phosphate dehydrogenase. All the cofactors were dissolved in a 50 mM potassium phosphate buffer (pH 7.4), containing 5 mM MgCl2, for a final volume of 0.25 mL. Aliquots of 25 µL were removed at 0, 5, 15, 30, 45, 60, and 90 min after S9 addition, and the reaction was stopped by adding 100 μL of ice-cold MeOH. The samples were centrifuged for 10 min at 10,000 rpm, and the supernatants were transferred into vials for LC-MS/MS analysis. The slope of the linear regression of the curve obtained by reporting the natural logarithm of compound area versus incubation time (−k) was used in the conversion to in vitro t1/2 values, calculated as t1/2 = −ln(2)/k. In vitro intrinsic clearance (Clint expressed as μL/min/mg) was obtained by first calculating V using the formula: V = volume of reaction (μL)/protein of liver microsomes (mg); intrinsic clearance was then calculated as: Clint = (V × ln2)/t1/2.

For the next series, the target named is T1, PXR (Homo sapiens, UniProt O75469).
T1 construct: expressed in transfected cells; host or cells: HepG2
T1 sequence (O75469 1-434): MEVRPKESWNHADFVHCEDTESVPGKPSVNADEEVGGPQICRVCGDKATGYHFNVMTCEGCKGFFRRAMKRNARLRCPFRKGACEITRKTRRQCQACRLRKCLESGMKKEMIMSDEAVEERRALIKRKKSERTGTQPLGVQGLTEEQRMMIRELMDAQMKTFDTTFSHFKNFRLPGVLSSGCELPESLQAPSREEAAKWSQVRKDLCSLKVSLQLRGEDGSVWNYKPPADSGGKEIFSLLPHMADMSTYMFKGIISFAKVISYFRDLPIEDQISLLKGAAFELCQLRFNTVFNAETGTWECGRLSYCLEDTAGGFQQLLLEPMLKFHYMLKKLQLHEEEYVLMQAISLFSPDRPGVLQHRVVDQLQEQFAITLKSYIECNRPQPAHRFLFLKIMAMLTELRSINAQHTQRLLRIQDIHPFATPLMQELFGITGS
T1 sequence (P19793 1-462 partner): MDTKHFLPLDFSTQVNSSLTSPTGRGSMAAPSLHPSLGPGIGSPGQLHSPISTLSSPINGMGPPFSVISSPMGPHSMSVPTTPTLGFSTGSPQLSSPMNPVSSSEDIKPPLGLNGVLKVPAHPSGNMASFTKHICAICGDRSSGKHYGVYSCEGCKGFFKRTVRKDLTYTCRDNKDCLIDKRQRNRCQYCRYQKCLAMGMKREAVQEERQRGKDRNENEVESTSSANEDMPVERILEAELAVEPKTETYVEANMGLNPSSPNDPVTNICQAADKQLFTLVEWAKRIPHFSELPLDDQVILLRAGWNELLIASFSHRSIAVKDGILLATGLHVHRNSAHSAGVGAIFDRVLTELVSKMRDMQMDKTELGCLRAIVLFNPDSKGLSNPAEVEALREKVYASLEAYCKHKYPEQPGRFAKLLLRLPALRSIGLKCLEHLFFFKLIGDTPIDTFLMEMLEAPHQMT
The series is described as follows: PXR luciferase reporter transactivation assay (agonism) on HepG2 cells. The series is classed as cell-based. The settings on record: concentration-response, mean ± SEM, at least three experiments. Background: Reporter assays use an easily measured gene product as a stand-in for the process of interest.

The source of these data is publication PMC10057480, “Expanding the Library of 1,2,4-Oxadiazole Derivatives: Discovery of New Farnesoid X Receptor (FXR) Antagonists/Pregnane X Receptor (PXR) Agonists” (Molecules, 2023).

As for `CCCCCN1CCC(c2nc(-c3ccc4ccccc4c3)no2)CC1` [Compound 5, 3-(Naphthalen-2-yl)-5-(1-pentylpiperidin-4-yl)-1,2,4-oxadiazole], in series [1], the “Effect on BSEP mRNA expression induced by 6-ECDCA” value is “reversed the effect”, the “Effect on NTCP mRNA expression” value is “showed antagonistic activity” and the “Effect on OSTα mRNA expression induced by 6-ECDCA” value is on record as “only a trend”. Also, in series [2], the “Effect on proinflammatory factors caused by TNFα stimulation” value is given as “reduced changes in the production of proinflammatory factors”. Also, in series [3], the half-life (commonly how long it takes for the measured level to halve) at 1 µM was 1.15 h and the microsomal CLint (in general, a measure of how fast metabolising enzymes remove a compound, apart from limits set by blood flow) at 1 µM was found to be 33.7 µL/min/mg. Besides, the EC50 (usually the midpoint of the concentration-response curve) on PXR came to 6.4 ± 0.1 µM.

Turning to `OCc1ccc(CN2CCC(c3nc(-c4ccc5ccccc5c4)no3)CC2)cc1` [Compound 11, 5-[1-(4-(Hydroxymethyl)benzyl)piperidin-4-yl]-3-(naphthalen-2-yl)-1,2,4-oxadiazole], in series [1], the “Effect on BSEP mRNA expression induced by 6-ECDCA” value was “reversed the effect” and the “Effect on OSTα mRNA expression induced by 6-ECDCA” value is on record as “only a trend”. Also, the “Effect on proinflammatory factors caused by TNFα stimulation” value in series [2] is reported as “reduced changes in the production of proinflammatory factors”. In series [3], this compound had a half-life at 1 µM of 3.4 h and a microsomal CLint at 1 µM of 11.3 µL/min/mg. The compound also yielded an EC50 at PXR of 7.5 ± 1 µM.
